US10695337B2, “Piperidin-4-yl azetidine derivatives as JAK1 inhibitors” (Incyte Corporation, priority 2010, dated 2020)

Target: human JAK1 (a.a. 837-1142)
Assay: In vitro JAK kinase assay (HTRF, phosphorylation of a biotinylated peptide), JAK1
Type: biochemical
Conditions: measured at 1 mM ATP; JAK2 IC50 / JAK1 IC50
In short: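 N-terminal His-tagged catalytic domains, baculovirus-expressed in insect cells, phosphorylated a biotinylated peptide for 1 hr at room temperature. EDTA stop was followed by SA-APC and Eu-Py20 antibody for 40 minutes, with phosphopeptide read by HTRF.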

Point of comparison: `N#CCC1(n2cc(-c3ncnc4[nH]ccc34)cn2)CN(C2CC3CCC(C2)N3C(=O)c2ccc(Cl)c(F)c2)C1` (centres unmarked) [Example 141, {1-[8-(4-chloro-3-fluorobenzoyl)-8-azabicyclo[3.2.1]oct-3-yl]-3-[4-(7H-pyrrolo[2,3-d]pyrimidin-4-yl)-1H-pyrazol-1-yl]azetidin-3-yl}acetonitrile], “IC50 Ratio JAK2/JAK1” value 6.2. Against it:
- N#CCC1(n2cc(-c3ncnc4[nH]ccc34)cn2)CN(C2CCN(C(=O)c3ccc(-c4ccccc4C#N)c(F)c3)CC2)C1 [Example 124, 4′-[(4-{3-(cyanomethyl)-3-[4-(7H-pyrrolo[2,3-d]pyrimidin-4-yl)-1H-pyrazol-1-yl]azetidin-1-yl}piperidin-1-yl)carbonyl]-2′-fluorobiphenyl-2-carbonitrile] — higher, 8.4
- N#CCC1(n2cc(-c3ncnc4[nH]ccc34)cn2)CN(C2CCN(C(=O)c3ccc(-c4cccc(C#N)c4)c(F)c3)CC2)C1 [Example 125, 4′-[(4-{3-(cyanomethyl)-3-[4-(7H-pyrrolo[2,3-d]pyrimidin-4-yl)-1H-pyrazol-1-yl]azetidin-1-yl}piperidin-1-yl)carbonyl]-2′-fluorobiphenyl-3-carbonitrile] — higher, 8.1
- N#CCC1(n2cc(-c3ncnc4[nH]ccc34)cn2)CN(C2CCN(C(=O)c3ccc(-c4ccc(C#N)cc4)cc3)CC2)C1 [Example 126, 4′-[(4-{3-(cyanomethyl)-3-[4-(7H-pyrrolo[2,3-d]pyrimidin-4-yl)-1H-pyrazol-1-yl]azetidin-1-yl}piperidin-1-yl)carbonyl]biphenyl-4-carbonitrile] — higher, 6.3
- N#CCC1(n2cc(-c3ncnc4[nH]ccc34)cn2)CN(C2CCN(C(=O)c3ccc(-c4ccc(F)c(F)c4)c(F)c3)CC2)C1 [Example 127, (3-[4-(7H-pyrrolo[2,3-d]pyrimidin-4-yl)-1H-pyrazol-1-yl]-1-{1-[(2,3′,4′-trifluorobiphenyl-4-yl)carbonyl]piperidin-4-yl}azetidin-3-yl) acetonitrile] — lower, 4.3
- N#CCC1(n2cc(-c3ncnc4[nH]ccc34)cn2)CN(C2CCN(C(=O)c3ccc(-c4cc(F)cc(C#N)c4)c(F)c3)CC2)C1 [Example 128, 4′-[(4-{3-(cyanomethyl)-3-[4-(7H-pyrrolo[2,3-d]pyrimidin-4-yl)-1H-pyrazol-1-yl]azetidin-1-yl}piperidin-1-yl)carbonyl]-2′,5-difluorobiphenyl-3-carbonitrile] — lower, 3.5
- N#CCC1(n2cc(-c3ncnc4[nH]ccc34)cn2)CN(C2CCN(C(=O)c3ccc(-c4cccc5ncccc45)c(F)c3)CC2)C1 [Example 129, {1-[1-(3-fluoro-4-quinolin-5-ylbenzoyl)piperidin-4-yl]-3-[4-(7H-pyrrolo[2,3-d]pyrimidin-4-yl)-1H-pyrazol-1-yl]azetidin-3-yl} acetonitrile] — higher, 7.9
- N#CCC1(n2cc(-c3ncnc4[nH]ccc34)cn2)CN(C2CCN(C(=O)c3ccc(-c4cccc5cnccc45)c(F)c3)CC2)C1 [Example 130, {1-[1-(3-fluoro-4-isoquinolin-5-ylbenzoyl)piperidin-4-yl]-3-[4-(7H-pyrrolo[2,3-d]pyrimidin-4-yl)-1H-pyrazol-1-yl]azetidin-3-yl}acetonitrile] — higher, 7.1
- N#CCC1(n2cc(-c3ncnc4[nH]ccc34)cn2)CN(C2CCN(C(=O)c3ccc(-c4cccc5ccncc45)c(F)c3)CC2)C1 [Example 131, {1-[1-(3-fluoro-4-isoquinolin-8-ylbenzoyl)piperidin-4-yl]-3-[4-(7H-pyrrolo[2,3-d]pyrimidin-4-yl)-1H-pyrazol-1-yl]azetidin-3-yl} acetonitrile] — higher, 8.1
- N#CCC1(n2cc(-c3ncnc4[nH]ccc34)cn2)CN(C2CCN(C(=O)c3ccc(-c4ccc5ccncc5c4)c(F)c3)CC2)C1 [Example 133, {1-[1-(3-fluoro-4-isoquinolin-7-ylbenzoyl)piperidin-4-yl]-3-[4-(7H-pyrrolo[2,3-d]pyrimidin-4-yl)-1H-pyrazol-1-yl]azetidin-3-yl} acetonitrile] — higher, 7.9
- N#CCC1(n2cc(-c3ncnc4[nH]ccc34)cn2)CN(C2CCN(C(=O)c3ccc(-c4ccc5cccnc5c4)c(F)c3)CC2)C1 [Example 134, {1-[1-(3-fluoro-4-quinolin-7-ylbenzoyl)piperidin-4-yl]-3-[4-(7H-pyrrolo[2,3-d]pyrimidin-4-yl)-1H-pyrazol-1-yl]azetidin-3-yl} acetonitrile] — higher, 6.7
- N#CCC1(n2cc(-c3ncnc4[nH]ccc34)cn2)CN(C2CCN(C(=O)c3ccc(-c4ccc5nccn5c4)c(F)c3)CC2)C1 [Example 135, {1-[1-(3-fluoro-4-imidazo[1,2-a]pyridin-6-ylbenzoyl)piperidin-4-yl]-3-[4-(7H-pyrrolo[2,3-d]pyrimidin-4-yl)-1H-pyrazol-1-yl]azetidin-3-yl} acetonitrile] — higher, 7.1
- N#CCC1(n2cc(-c3ncnc4[nH]ccc34)cn2)CN(C2CCN(C(=O)c3ccc(-c4nc5ccccc5o4)cc3)CC2)C1 [Example 136, {1-{1-[4-(1,3-benzoxazol-2-yl)benzoyl]piperidin-4-yl}-3-[4-(7H-pyrrolo[2,3-d]pyrimidin-4-yl)-1H-pyrazol-1-yl]azetidin-3-yl}acetonitrile] — lower, 5.6
- N#CCC1(n2cc(-c3ncnc4[nH]ccc34)cn2)CN(C2CCN(C(=O)c3ccc(-c4nc5ccccc5o4)c(F)c3)CC2)C1 [Example 137, {1-{1-[4-(1,3-benzoxazol-2-yl)-3-fluorobenzoyl]piperidin-4-yl}-3-[4-(7H-pyrrolo[2,3-d]pyrimidin-4-yl)-1H-pyrazol-1-yl]azetidin-3-yl} acetonitrile] — lower, 6.0
- N#CCC1(n2cc(-c3ncnc4[nH]ccc34)cn2)CN(C2CC3CCC(C2)N3C(=O)c2ccc(F)c(F)c2)C1 (centres unmarked) [Example 139, {1-[8-(3,4-difluorobenzoyl)-8-azabicyclo[3.2.1]oct-3-yl]-3-[4-(7H-pyrrolo[2,3-d]pyrimidin-4-yl)-1H-pyrazol-1-yl]azetidin-3-yl}acetonitrile] — lower, 4.4
- N#CCC1(n2cc(-c3ncnc4[nH]ccc34)cn2)CN(C2CC3CCC(C2)N3C(=O)c2ccc(C#N)c(F)c2)C1 (centres unmarked) [Example 140, 4-[(3-{3-(cyanomethyl)-3-[4-(7H-pyrrolo[2,3-d]pyrimidin-4-yl)-1H-pyrazol-1-yl]azetidin-1-yl}-8-azabicyclo[3.2.1]oct-8-yl)carbonyl]-2-fluorobenzonitrile] — lower, 5.4
- N#CCC1(n2cc(-c3ncnc4[nH]ccc34)cn2)CN(C2CC3CCC(C2)N3C(=O)c2ccnc(C(F)(F)F)c2F)C1 (centres unmarked) [Example 142, {1-{8-[3-fluoro-2-(trifluoromethyl)isonicotinoyl]-8-azabicyclo[3.2.1]oct-3-yl}-3-[4-(7H-pyrrolo[2,3-d]pyrimidin-4-yl)-1H-pyrazol-1-yl]azetidin-3-yl}acetonitrile] — higher, 7.4
- N#CCC1(n2cc(-c3ncnc4[nH]ccc34)cn2)CN(C2CC3CCC(C2)N3C(=O)c2ccc(C(F)(F)F)nc2)C1 (centres unmarked) [Example 143, [3-[4-(7H-pyrrolo[2,3-d]pyrimidin-4-yl)-1H-pyrazol-1-yl]-1-(8-{[6-(trifluoromethyl)pyridin-3-yl]carbonyl}-8-azabicyclo[3.2.1]oct-3-yl)azetidin-3-yl]acetonitrile] — lower, 3.5
- CC1CC(N2CC(CC#N)(n3cc(-c4ncnc5[nH]ccc45)cn3)C2)CCN1C(=O)C1CCC(F)(F)CC1 (centres unmarked) [Example 151, {1-{1-[(4,4-difluorocyclohexyl)carbonyl]-2-methylpiperidin-4-yl}-3-[4-(7H-pyrrolo[2,3-d]pyrimidin-4-yl)-1H-pyrazol-1-yl]azetidin-3-yl}acetonitrile] — lower, 5.8
- CC1(N2CC(CC#N)(n3cc(-c4ncnc5[nH]ccc45)cn3)C2)CCN(C(=O)c2cccc(F)c2)CC1 [Example 152, {1-[1-(3-Fluorobenzoyl)-4-methylpiperidin-4-yl]-3-[4-(7H-pyrrolo[2,3-d]pyrimidin-4-yl)-1H-pyrazol-1-yl]azetidin-3-yl}acetonitrile] — lower, 4.0
- N#CCC1(n2cc(-c3ncnc4[nH]ccc34)cn2)CN(C2CCN(C(=O)Nc3ccccc3OC(F)(F)F)CC2)C1 [Example 158, 4-{3-(cyanomethyl)-3-[4-(7H-pyrrolo[2,3-d]pyrimidin-4-yl)-1H-pyrazol-1-yl]azetidin-1-yl}-N-[2-(trifluoromethoxy)phenyl]piperidine-1-carboxamide] — higher, 12.0
- N#CCC1(n2cc(-c3ncnc4[nH]ccc34)cn2)CN(C2CCN(C(=O)Nc3cscc3Br)CC2)C1 [Example 159, N-(4-bromo-3-thienyl)-4-{3-(cyanomethyl)-3-[4-(7H-pyrrolo[2,3-d]pyrimidin-4-yl)-1H-pyrazol-1-yl]azetidin-1-yl}piperidine-1-carboxamide] — higher, 15.0
- N#CCC1(n2cc(-c3ncnc4[nH]ccc34)cn2)CN(C2CCN(C(=O)Nc3ccccc3Cl)CC2)C1 [Example 163, N-(2-chlorophenyl)-4-{3-(cyanomethyl)-3-[4-(7H-pyrrolo[2,3-d]pyrimidin-4-yl)-1H-pyrazol-1-yl]azetidin-1-yl}piperidine-1-carboxamide] — higher, 12.0
- N#CCC1(n2cc(-c3ncnc4[nH]ccc34)cn2)CN(C2CCN(C(=O)Nc3cccc(C(F)(F)F)c3)CC2)C1 [Example 166, 4-{3-(cyanomethyl)-3-[4-(7H-pyrrolo[2,3-d]pyrimidin-4-yl)-1H-pyrazol-1-yl]azetidin-1-yl}-N-[3-(trifluoromethyl)phenyl]piperidine-1-carboxamide] — lower, 5.5
- N#CCC1(n2cc(-c3ncnc4[nH]ccc34)cn2)CN(C2CCN(C(=O)Nc3ccc(C(F)(F)F)cc3)CC2)C1 [Example 167, 4-{3-(cyanomethyl)-3-[4-(7H-pyrrolo[2,3-d]pyrimidin-4-yl)-1H-pyrazol-1-yl]azetidin-1-yl}-N-[4-(trifluoromethyl)phenyl]piperidine-1-carboxamide] — lower, 2.0
- Cc1ccc(Cl)cc1NC(=O)N1CCC(N2CC(CC#N)(n3cc(-c4ncnc5[nH]ccc45)cn3)C2)CC1 [Example 168, N-(5-chloro-2-methylphenyl)-4-{3-(cyanomethyl)-3-[4-(7H-pyrrolo[2,3-d]pyrimidin-4-yl)-1H-pyrazol-1-yl]azetidin-1-yl}piperidine-1-carboxamide] — lower, 2.6
